Test results from patent publication US20260308179A1, “NOVEL CRYSTALLINE FORM OF RISDIPLAM AND PROCESS FOR PREPARATION THEREOF” (HARMAN FINOCHEM LIMITED, priority 2023, published 2026).
In brackets after ≈: the same amount, converted by molar mass. Where two headings read alike, the source gives them in different places.

What was measured:
[1] = Risdiplam solubility data; assay type: physicochemical
[2] = Storage stability of crystalline Form H by IR spectrum; assay type: physicochemical
Protocol: In yet another aspect, the crystalline Form H of Risdiplam is characterized by the IR spectrum at 834 cm^−1, 880 cm^−1, 926 cm^−1, 1210 cm^−1, 1227 cm^−1, 1674 cm^−1, 2824 cm^−1, 3283 cm^−1; as illustrated in FIGS. 2A and 2B. The IR spectrum of Risdiplam Form H was conducted after 6 months of storage.
In yet another embodiment, the crystalline Form H of Risdiplam is characterized by the IR spectrum at 834 cm^−1, 880 cm^−1, 926 cm^−1, 1210 cm^−1, 1227 cm^−1, 1674 cm^−1, 2824 cm^−1, 3283 cm^−1 as illustrated in FIGS. 2A and 2B. The IR spectrum of Risdiplam Form H illustrated in FIG. 2B was conducted after 6 months of storage.

Cc1cn2nc(-c3cc(=O)n4cc(N5CCNC6(CC6)C5)ccc4n3)cc(C)c2n1 [011/DS-C/V/118/032, 7-(4,7-Diazaspiro[2,5]octan-7-yl)-2-(2,8-dimethylimidazo[1,2-b]pyridazin-6-yl)-pyrido[1,2-a]pyrimidin-4-one]
solubility ([1]; ethanol, organic solvent or mixture, solvent: ethanol, read-out: Solubility in ethanol): 1300 µg/mL (≈ 3240 µM)
solubility ([1]; water, solvent: water, read-out: Solubility in water): 3 µg/mL (≈ 7.47 µM)

Cc1cn2nc(-c3cc(=O)n4cc(N5CCNC6(CC6)C5)ccc4n3)cc(C)c2n1 [STD]
Solubility in ethanol ([1]; solvent: ethanol): <1000 µg/mL
Solubility in water ([1]; solvent: water): <100 µg/mL

Cc1cn2nc(-c3cc(=O)n4cc(N5CCNC6(CC6)C5)ccc4n3)cc(C)c2n1 [crystalline Form H of Risdiplam, 7-(4,7-diazaspiro[2.5]octan-7-yl)-2-(2,8-dimethylimidazo[1,2-b]pyridazin-6-yl)pyrido-4H-[1,2-a]pyrimidin-4-one]
change in the IR spectrum after storage (stability) ([2]; after 6 months of storage, IR spectrum, FIG. 2A and 2B): No substantial change in the IR spectrum was observed
stability period ([2]; illustrated by IR spectrum in FIG. 2): stable up to a period of 6 months
Solubility in ethanol ([1]; solvent: ethanol, listed as 011/DS-C/IV/118/048): 1400 µg/mL (≈ 3490 µM)
Solubility in water ([1]; solvent: water, listed as 011/DS-C/IV/118/048): 6 µg/mL (≈ 14.9 µM)
